The target in one series is T1, Human HDAC1 (Homo sapiens, UniProt Q13547).
T1 construct: Full length with C-terminal GST tag, MW=79.9 kDa; GST (C); host or cells: Sf9 insect cells, baculovirus expression system
The series can be described thus: HDAC isoform inhibition, HDAC1. Format: biochemical. Particulars: duplicate 10-dose IC50 mode, 3-fold serial dilution starting at 30 μM.

Another series has as its target T2, Human HDAC6 (Homo sapiens, UniProt Q9UBN7).
T2 construct: Full length with N-terminal GST tag, MW=159 kDa; GST (N); host or cells: Sf9 insect cells, baculovirus expression system
T2 sequence (Q9UBN7 1-1215): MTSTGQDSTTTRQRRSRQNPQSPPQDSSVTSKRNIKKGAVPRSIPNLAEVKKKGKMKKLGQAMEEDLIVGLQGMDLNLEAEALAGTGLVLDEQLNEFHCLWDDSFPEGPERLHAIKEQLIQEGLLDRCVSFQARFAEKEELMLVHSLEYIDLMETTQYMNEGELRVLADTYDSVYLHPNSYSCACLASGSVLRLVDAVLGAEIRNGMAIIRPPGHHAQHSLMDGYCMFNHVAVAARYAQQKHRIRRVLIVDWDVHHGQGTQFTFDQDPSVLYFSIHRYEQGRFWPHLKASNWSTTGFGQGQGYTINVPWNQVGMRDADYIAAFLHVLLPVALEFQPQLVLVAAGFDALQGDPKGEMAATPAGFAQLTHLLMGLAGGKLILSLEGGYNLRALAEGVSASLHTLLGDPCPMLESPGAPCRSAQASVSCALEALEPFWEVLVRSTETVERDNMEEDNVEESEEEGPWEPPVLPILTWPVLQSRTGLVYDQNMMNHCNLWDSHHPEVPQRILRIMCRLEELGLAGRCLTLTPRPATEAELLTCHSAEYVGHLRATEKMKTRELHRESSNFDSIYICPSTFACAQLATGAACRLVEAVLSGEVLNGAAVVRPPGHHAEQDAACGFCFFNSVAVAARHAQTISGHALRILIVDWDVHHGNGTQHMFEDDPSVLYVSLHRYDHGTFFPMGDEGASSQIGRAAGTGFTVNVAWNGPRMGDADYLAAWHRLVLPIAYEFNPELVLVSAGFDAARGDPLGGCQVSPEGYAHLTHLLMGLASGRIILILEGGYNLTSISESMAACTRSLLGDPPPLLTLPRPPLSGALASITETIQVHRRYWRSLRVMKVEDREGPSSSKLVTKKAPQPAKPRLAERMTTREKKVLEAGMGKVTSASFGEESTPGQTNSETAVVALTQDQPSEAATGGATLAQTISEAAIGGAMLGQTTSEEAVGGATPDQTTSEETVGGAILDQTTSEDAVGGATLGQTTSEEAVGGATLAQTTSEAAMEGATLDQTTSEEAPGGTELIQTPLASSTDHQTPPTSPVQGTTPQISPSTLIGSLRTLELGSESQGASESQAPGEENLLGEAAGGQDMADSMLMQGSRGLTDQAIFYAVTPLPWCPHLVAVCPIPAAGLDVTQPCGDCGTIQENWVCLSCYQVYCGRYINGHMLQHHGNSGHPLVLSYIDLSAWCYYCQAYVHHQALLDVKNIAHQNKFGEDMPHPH
Description: HDAC isoform inhibition, HDAC6. Format: biochemical. As to conditions: for IC50: duplicate 10-dose IC50 mode, 3-fold serial dilution starting at 30 μM; for Selectivity HDAC1/HDAC6: ratio of HDAC1 IC50 to HDAC6 IC50.

Series [1] in a line: Liver microsomal stability, mouse. It counts as in vitro ADME. As to conditions: mouse liver microsomes. In general terms: Liver microsomes are vesicles of endoplasmic reticulum, rich in cytochrome P450 enzymes.
Series [2] is described as follows: Liver microsomal stability, human. Particulars: human liver microsomes. Format: in vitro ADME.
Series [3] can be described thus: Hepatocyte stability, mouse. Particulars: mouse hepatocytes. It counts as in vitro ADME.
Series [4] can be described thus: Hepatocyte stability, human. Format: in vitro ADME. Particulars: human hepatocytes.
The test system of series [5] is Salmonella typhimurium (TA98 and TA1537). Description: Mini-Ames test. Format: cell-based. Particulars: two Salmonella typhimurium strains, presence and absence of S9 mix. How it is done: […]. SS-2-08 was incubated with two strains of Salmonella typhimurium (TA98 and TA1537) in the presence and absence of mammalian microsomal enzymes (S9 mix) to investigate the possible mutagenicity of this compound. […].

Series [6] relates to Human melanoma WM164 cells. The series can be described thus: Immunoblot of acetylated tubulin in WM164 cells. Particulars: different concentrations, presence or absence of IL-6 (30 ng/uL) or IFNg (100 ng/uL). Format: cell-based. As to the method: Human Melanoma cells WM164 were cultured in RPMI 1640 media, supplemented with 10% FBS, penicillin/streptomycin (50 U/ml), L-glutamine (2 mM), and 2-mercaptoethanol (50 μM) (complete media), and grown under humidified conditions at 37° C. and 5% CO2.
The cells were lysed in a buffer containing 280 mM NaCl, 50 mM Tris HCL PH 8.0, 0.5% Igepal, 5 mM MgCl2, 10% glycerol and 1× protease inhibitor (Roche), phosphatase inhibitor (Santa Cruz Biotechnology). Lysates were sonicated on ice for […] (2 cycles of 30 s on, 30 s rest) and then mixed with 6× gel loading buffer and boiled for 5 minutes. Samples were then resolved on 10% or 4-15% gradient gels and transferred to nitrocellulose membranes. Membranes were blocked with 5% milk-PBS-Tween. Bands were detected by scanning blots with an LI-COR Odyssey imaging system using both 700 and 800 channels. The antibodies used for immunobloting included Anti-acetyl-α-Tubulin (SC-23950) and anti-α-Tubulin (SC-32293), which were purchased from Santa Cruz Biotechnology. Anti-HDAC6 (C0226) was from Assay Biotech. Anti-GAPDH (68795) was from Sigma Aldrich. Anti STAT3 (12640), anti P-STAT3 Y-705 (9138), anti P-STAT3 S727 (9136), and anti Acetil-STAT3 (2523) were purchased from Cell signaling. Anti PD-L1 (PA5-28115) was obtained from Thermo Scientific. Anti-FLAG (F1804) antibody was from Sigma. […]
(In general: Immunoblotting shows a protein as a band on a membrane.)

Series [7] concerns Human melanoma WM164 cells. The series can be described thus: HDAC assay in WM164 cells. Particulars: different concentrations. It counts as cell-based.
Series [8] has as its system Human melanoma WM164 cells. Description: Cytotoxicity assay (CellTox) in WM164 cells. Format: cell-based. As to conditions: different concentrations, 24 hour reading. As to the method:
All cells were cultured in RPMI 1640 media, supplemented with 10% FBS, penicillin/streptomycin (50 U/ml), L-glutamine (2 mM), and 2-mercaptoethanol ([…]) (complete media), and grown under humidified conditions at 37° C. and 5% CO2.
Cells were plated at a desired density in a black, flat clear bottom, 96 well plate. After 24 hours of cell growth, the media was removed from all the wells, fresh media was added with the fluorescent CellTox dye, using the manufactured protocol. The plate was then treated with the compounds of interest at the various concentrations of the compound. Immediately after plating, a baseline reading was performed. The plate was then incubated for 24 hours before the next reading was done, which was considered the 24 hour reading. Assay measurements were collected using the SoftMax Pro Microplate Data Acquisition and Analysis Software paired with Molecular Devices spectrophotometer (SpectraMax).
Human melanoma WM164 cells were treated with different concentrations SS-2-08 and SS-01-100 to evaluate the HDAC activity associated with the potential cytotoxic effect of these compounds.

Series [9] concerns Murine melanoma SM1 cells. The series can be described thus: ApoTox-Glo Triplex Assay, apoptosis. It counts as cell-based. As to the method:
Murine melanoma SM1 cells were cultured in RPMI 1640 medium supplemented with: 1% minimum essential medium (MEM) non-essential amino acids solution, 10% fetal bovine serum (FBS), and 1% penicillin-streptomycin (P/S) then grown under humidified conditions at 37° C. and 5% CO2.
The assay controls—Digitonin (D141-100MG), Ionomycin (I064-1MG) and Mitomycin C (M4287-2MG)—were purchased from Sigma. Through a control plate evaluation, the optimal control concentration was selected for HDACi on the compound plates—30 μg/mL Digitonin, 100 μM Ionomycin, and 25 μg/mL Mitomycin.
Murine melanoma cells were treated with individual HDACi along with the protocol recommended assay controls. Following the manufacturers protocol, Viability/Cytotoxity reagents were added—fluorescence was measured at […] 400Ex/505Em (viability) and 485Ex/520Em (cytotoxicity). Next, the Caspase 3/7 reagent was added, after incubation, luminescence was measured at Lm578 (apoptosis). Assay measurements were collected using the SpectraMax. During analysis, LBH is used as the control compound.

In a further series the test system is SM1 melanoma tumor. The series can be described thus: Syngeneic SM1 murine melanoma tumor model. Particulars: 25 mg/kg and 50 mg/kg intraperitoneally, three times a week. Format: in vivo, C57/BL/6 mice. How it is done:
Animal experiments involving mice were performed in accordance to all approved protocols by the IACUC at The George Washington University. C57/BL/6 mice were obtained from Charles River (Massachusetts-Wilmington, USA). Mice for the in vivo tumor studies were subcutaneously injected in the right flank with 1.0×10^6 SM1 melanoma cells suspended in 100 μL 1× Phosphate Buffer Saline (PBS). After subcutaneous injection, tumor growth was monitored until they became palpable. Once palpable (5-8 mm in diameter), the animals were then treated with a vehicle control, or SS-2-08 at a dose of 25 mg/kg and 50 mg/kg, intraperitoneally, three times a week. Tumor growth was recorded twice a week. When the tumors reached 4000 mm^3, mice were euthanized. The values collected are represented as the mean tumor volume (mm^3) and standard deviation for treatment groups.

For the next series, the target named is hERG (Homo sapiens, UniProt Q12809). The series can be described thus: cell-based.
Sequence of hERG (Q12809 whole entry): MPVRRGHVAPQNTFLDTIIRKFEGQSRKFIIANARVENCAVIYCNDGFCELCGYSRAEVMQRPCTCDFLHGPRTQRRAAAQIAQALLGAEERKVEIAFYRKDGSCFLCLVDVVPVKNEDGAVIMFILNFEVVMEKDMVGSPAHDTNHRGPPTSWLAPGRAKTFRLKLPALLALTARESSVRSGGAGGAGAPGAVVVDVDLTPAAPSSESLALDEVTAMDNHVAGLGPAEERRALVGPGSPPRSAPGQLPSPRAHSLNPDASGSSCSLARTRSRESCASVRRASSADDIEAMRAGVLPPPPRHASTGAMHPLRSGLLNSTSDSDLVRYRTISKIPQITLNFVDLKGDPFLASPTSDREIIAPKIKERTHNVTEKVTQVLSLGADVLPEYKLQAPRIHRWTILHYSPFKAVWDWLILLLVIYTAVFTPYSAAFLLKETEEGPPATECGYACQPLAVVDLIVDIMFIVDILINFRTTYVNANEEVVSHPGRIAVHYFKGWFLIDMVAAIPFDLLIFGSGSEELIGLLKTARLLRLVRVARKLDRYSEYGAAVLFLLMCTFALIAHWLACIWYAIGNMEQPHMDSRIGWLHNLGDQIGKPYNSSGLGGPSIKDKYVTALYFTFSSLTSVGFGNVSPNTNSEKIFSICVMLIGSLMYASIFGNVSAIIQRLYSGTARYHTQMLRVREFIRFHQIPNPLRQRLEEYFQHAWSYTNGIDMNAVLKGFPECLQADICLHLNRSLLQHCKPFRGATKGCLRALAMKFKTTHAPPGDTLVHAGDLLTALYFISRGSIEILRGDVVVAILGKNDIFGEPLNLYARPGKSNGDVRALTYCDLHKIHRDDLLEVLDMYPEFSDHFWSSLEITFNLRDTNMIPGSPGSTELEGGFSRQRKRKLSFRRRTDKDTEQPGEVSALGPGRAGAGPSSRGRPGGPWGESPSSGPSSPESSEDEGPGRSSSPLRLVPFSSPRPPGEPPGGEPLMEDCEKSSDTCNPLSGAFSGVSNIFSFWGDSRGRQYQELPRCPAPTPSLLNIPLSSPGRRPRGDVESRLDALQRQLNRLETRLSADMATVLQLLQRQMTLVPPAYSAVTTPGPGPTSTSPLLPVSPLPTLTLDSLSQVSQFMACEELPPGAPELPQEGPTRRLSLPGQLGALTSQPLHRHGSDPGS

The structures appear in SMILES notation. pIC50: −log10 of the molar value. Entries after “also recorded” stand apart in the source; their conditions may differ.

T1 sequence (Q13547 whole entry): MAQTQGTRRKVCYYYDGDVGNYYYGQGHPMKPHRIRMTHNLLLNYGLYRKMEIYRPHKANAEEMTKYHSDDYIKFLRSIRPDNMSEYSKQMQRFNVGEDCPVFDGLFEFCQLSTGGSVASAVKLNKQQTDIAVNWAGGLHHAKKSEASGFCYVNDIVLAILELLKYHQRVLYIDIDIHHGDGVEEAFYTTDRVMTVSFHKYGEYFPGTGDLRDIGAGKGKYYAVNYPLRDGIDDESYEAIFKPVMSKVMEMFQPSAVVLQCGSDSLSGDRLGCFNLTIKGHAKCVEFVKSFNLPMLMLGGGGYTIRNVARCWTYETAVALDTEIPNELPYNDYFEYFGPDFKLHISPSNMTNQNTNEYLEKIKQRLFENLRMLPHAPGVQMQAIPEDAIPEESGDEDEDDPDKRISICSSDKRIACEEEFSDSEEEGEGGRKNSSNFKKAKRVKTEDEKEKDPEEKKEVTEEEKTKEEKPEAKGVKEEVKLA

The term IC50 denotes the concentration that gives 50% inhibition. For the molecule `O=C(NCCc1cc(C(=O)NO)no1)c1ccc2ccccc2c1` [SS-3-66, 5-(2-(2-naphthamido)ethyl)-N-hydroxyisoxazole-3-carboxamide], the IC50 at Human HDAC1 came to 3030 nM. Besides, on Human HDAC6, the IC50 stood at 10.3 nM and the “Selectivity HDAC1/HDAC6” value stood at 294.

`CC1(C)CCN(CCCCc2cc(C(=O)NO)no2)c2ccc(Cl)cc21` [SS-4-02, 5-(4-(6-chloro-4,4-dimethyl-3,4-dihydroquinolin-1(2H)-yl)butyl)-N-hydroxyisoxazole-3-carboxamide] came in with an IC50 against Human HDAC1 of 174000 nM. Also, at Human HDAC6, half-maximal inhibition (IC50) was put at 4360 nM and the “Selectivity HDAC1/HDAC6” value is reported as 40.

The term pIC50 denotes −log10 of the IC50, conventionally taken in molar units. A lower pIC50 goes with a high IC50. Take `O=C(NCCc1cc(C(=O)NO)no1)c1ccc(Cl)c(Cl)c1` [SS-2-08, 5-(2-(3,4-dichlorobenzamido)ethyl)-N-hydroxyisoxazole-3-carboxamide]: the “Liver microsomal stability (t1/2 min, with NADPH) Mouse” value in series [1] worked out at 0.617 h. In series [2], the “Liver microsomal stability (t1/2 min, with NADPH) Human” value turned out to be 2.25 h. The “Hepatocyte stability (t1/2 min) Mouse” value in [3] is 0.367 h. In series [4], the “Hepatocyte stability (t1/2 min) Human” value was 1.8 h. Also, the Mini-Ames test result in series [5] is “No significant number of revertant colonies; also recorded: Negative”. For the same molecule, the “levels of acetylated tubulin” value in [6] is reported as “increased”. For the same molecule, in series [7], the HDAC activity entry is on record as “reduced the HDAC activity in a dose-dependent manner”. For the same molecule, the cytotoxicity entry in series [8] was “minimal cytotoxicity effects”. Moreover, in series [9], the “apoptosis (Caspase 3/7)” value is listed as “does not induce apoptosis”. Also, the tumor growth result in the series with SM1 melanoma tumor is “reduces in vivo tumor growth”. In addition, the negative logarithm of the IC50 (pIC50) at hERG is < 4.52.

Take `O=C(NCCc1cc(C(=O)NO)no1)c1ccccc1` [SS-1-100, 5-(2-Benzamidoethyl)-N-hydroxyisoxazole-3-carboxamide]: on Human HDAC1, the “IC50 (nM) HDAC1” value is “No inhibition”. For the same molecule, the IC50 against Human HDAC6 was found to be 194 nM. Also, the “levels of acetylated tubulin” value in [6] is recorded as “increased”. In addition, the HDAC activity entry in series [7] was “reduced the HDAC activity in a dose-dependent manner”. Also, the cytotoxicity entry in [8] was “minimal cytotoxicity effects”.

Consider `O=C(NO)c1cc(CCCCN2c3ccc(Cl)cc3CCc3cc(Cl)ccc32)on1` [SS-1-54, 5-(4-(2,8-dichloro-10,11-dihydro-5H-dibenzo[bf]azepin-5-yl)butyl)-N-hydroxyisoxazole-3-carboxamide], for which the “IC50 (nM) HDAC1” value against Human HDAC1 is recorded as “No inhibition”. In addition, at Human HDAC6, the half-maximal inhibitory concentration (IC50) amounted to 1340 nM.

Take `O=C(NO)c1cc(CCCCN2CCCc3cc(Cl)ccc32)on1` [SS-4-01, 5-(4-(6-chloro-3,4-dihydroquinolin-1(2H)-yl)butyl)-N-hydroxyisoxazole-3-carboxamide]: the IC50 worked out at 44000 nM against Human HDAC1 and 1990 nM against Human HDAC6. For the same molecule, the “Selectivity HDAC1/HDAC6” value on Human HDAC6 is 22.

Consider `O=C(NCCc1cc(C(=O)NO)no1)c1cccc(-c2ccccc2)c1` [SS-3-67, 5-(2-([1,1′-biphenyl]-3-ylcarboxamido)ethyl)-N-hydroxyisoxazole-3-carboxamide], for which the results for the IC50 on Human HDAC1 and against Human HDAC6 were 2040 nM and 24.1 nM, respectively. Further, on Human HDAC6, the “Selectivity HDAC1/HDAC6” value is on record as 85.

Turning to `O=C(NO)c1cc(CCCCn2ccc3cc(Cl)c(Cl)cc32)on1` [SS-3-94, 5-(4-(5,6-dichloro-1H-indol-1-yl)butyl)-N-hydroxyisoxazole-3-carboxamide], on Human HDAC1, the IC50 amounted to 11200 nM. Also, at Human HDAC6, the IC50 stood at 693 nM and the “Selectivity HDAC1/HDAC6” value was determined as 16.

The molecule `O=C(NO)c1cc(CCCOc2ccc(Cl)c(Cl)c2)on1` [SS-4-10, 5-(3-(3,4-dichlorophenoxy)propyl)-N-hydroxyisoxazole-3-carboxamide] returned an IC50 against Human HDAC6 of 195 nM. This lies in the sub-micromolar range.

The values are drawn from US12522572B2, “Isoxazole hydroxamic acids as histone deacetylase 6 inhibitors” (The George Washington University, A Congressionally …, priority 2017, dated 2026).
